Laboratory results taken from article PMC6599250, “Functional diversity of inhibitors tackling the differentiation blockage of MLL-rearranged leukemia” (Journal of Hematology & Oncology, 2019).

Legend:
[1] = test system: H3K79me2 on HOXA9 and MEIS1; conditions: clinical phase I study; cited from earlier work
MENIN-MLL interaction = MENIN-MLL interaction (Homo sapiens, UniProt O00255); test: On target potency, MENIN-MLL interaction; assay type: biochemical
Text: Table 1 Inhibitors used in this study. Chemical structures of inhibitor used in this study tackling Menin-MLL1 interaction, BRD4/2/3, DOT1L, CDK9, and DHODH active sites, with respective biochemical IC50, rationale and current developmental status | column: BAY-155

AML patients = conditions: cited from earlier work
BRD4/2/3 = conditions: read-out: On target Potency EC50; cited from earlier work
P-TEFb/CDK9 = conditions: read-out: On target Potency IC50; cited from earlier work
[2] = test system: MYC, PCNA, and MCL-1 levels; design: method as in earlier work; conditions: initial pharmacodynamics data analysis; cited from earlier work

Chain of MENIN-MLL interaction (O00255 whole entry): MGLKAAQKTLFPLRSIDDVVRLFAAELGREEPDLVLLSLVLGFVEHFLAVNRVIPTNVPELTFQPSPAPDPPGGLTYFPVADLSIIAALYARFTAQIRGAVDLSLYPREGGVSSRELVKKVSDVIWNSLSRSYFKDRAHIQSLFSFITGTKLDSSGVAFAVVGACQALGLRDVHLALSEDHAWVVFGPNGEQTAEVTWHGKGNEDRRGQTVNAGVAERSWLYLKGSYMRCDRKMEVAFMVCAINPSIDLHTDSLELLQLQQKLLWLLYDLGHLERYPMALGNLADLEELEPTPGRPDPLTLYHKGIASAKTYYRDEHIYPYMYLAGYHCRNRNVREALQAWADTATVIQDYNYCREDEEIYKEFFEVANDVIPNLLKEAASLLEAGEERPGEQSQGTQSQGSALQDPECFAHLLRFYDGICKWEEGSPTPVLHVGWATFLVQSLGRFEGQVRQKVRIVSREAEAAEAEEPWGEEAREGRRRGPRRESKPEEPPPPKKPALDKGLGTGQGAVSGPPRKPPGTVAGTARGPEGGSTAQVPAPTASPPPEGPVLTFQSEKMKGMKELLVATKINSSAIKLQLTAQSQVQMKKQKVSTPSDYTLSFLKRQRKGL

## CC(C)N(C[C@H]1O[C@@H](n2cnc3c(N)ncnc32)[C@H](O)[C@@H]1O)[C@H]1C[C@@H](CCc2nc3cc(C(C)(C)C)ccc3[nH]2)C1 [EPZ-5676]
[1]
  H3K79me2 on HOXA9 and MEIS1 in AML patients: significant reduction of H3K79me2 on HOXA9 and MEIS1

## Cc1c(CN2CCC3(CC2)CN(c2ncnc4sc(CC(F)(F)F)cc24)C3)ccc2c1cc(C#N)n2CC(N)=O [BAY-155]
MENIN-MLL interaction
  EC50: 8 nM

## Cc1sc2c(c1C)C(c1ccc(Cl)cc1)=N[C@@H](CC(=O)Nc1ccc(O)cc1)c1nnc(C)n1-2 [OTX015]
AML patients; AML patients harboring diverse driving mutations
  clinical activity in AML patients: partial blast clearance and recovery of platelets
AML patients; patients with incomplete bone marrow failure
  dose-limiting effect in patients: severe thrombocytopenia as dose-limiting effect
BRD4/2/3
  EC50: 10 to 19 nM

## COc1cc(F)ccc1-c1cc(Nc2cc(CS(C)(=N)=O)ccn2)ncc1F (stereo not shown) [BAY 1251152]
P-TEFb/CDK9
  IC50: 3 nM
[2]
  pharmacodynamics in phase I: dose-dependent reduction of MYC, PCNA, and MCL-1 levels
